Measurements taken from patent publication US7122173B2, “Agent for the treatment of bladder irritative symptoms accompanied by benign prostatic hyperplasia” (Kyowa Hakko Kogyo Co., Ltd., priority 2001, dated 2006).

Key:
[1] = system: rats with partial urethra obstruction; experiment: Bladder capacity in rats with partial outlet obstruction (cystometry); assay type: in vivo, rat; conditions: oral
Method: The test was carried out in accordance with the method of Saito et al. (J. Urol., 150: 1145–1151 (1993)). Male SD rats of 8 to 9 weeks of age (supplied by Japan SLC) were used in the test. Five to seven animals of these rats were put in each metal cage and reared by allowing them to freely take commercially available chow and water, in a rearing room at a room temperature of from 19 to 25° C. and a humidity of from 30 to 70% under illumination for 12 hours (from 7 a.m. to 7 p.m.) per day. Partial urethra obstruction was induced in rats, as a model of urethral obstruction mimicking BPH. Each rat was anesthetized by intraperitoneal administration of 50 mg/kg of pentobarbital sodium (Dainippon Pharmaceutical) and placed in dorsal position. The abdomen was cut in a length of about 1 cm by median incision to expose the bladder, prostate and the urethra. The bladder neck and bladder base were peeled from the prostate, and two surgical sutures (No. 3, Natsume Seisakusho) were passed behind the urethra base. A polyethylene tube (PE-200; Becton Dickinson) was placed along the urethra, and the urethra was mildly double-ligated together with the tube. The ligation was carried out in such a manner that the urethra was not pressed by the polyethylene tube and the sutures were not loosened. The polyethylene tube was pulled out and the urethra was constricted. On the same day of the above surgery, bladder catheter indwelling operation was carried out. The bladder was exposed, and a polyethylene tube (PE-50; Becton Dickinson) was inserted from the bladder top and fixed with a surgical suture. The other end was exposed subcutaneously from the back neck, plugged and then fixed to the skin with the surgical suture. The bladder was returned to the original position and the abdomen was sutured with the surgical suture. Five to seven days after the urethra obstruction and catheter indwelling operations, the rats with partial urethra obstruction and those subjected to sham-operation were put in Ballman cages (KN-326-1, Natsume Seisakusho) under the restricted state, and a three-way cock was connected to the bladder catheter. A pressure transducer (DX-360; Nihon Kohden) was connected to one end of the three-way cock, and the intravesical pressure signal was amplified via a strain pressure amplifier (AP-601G; Nihon Kohden), measured by a polygraph (RPM-6008; Nihon Kohden) and recorded on a thermal array recorder (RTA-1200; Nihon Kohden). A syringe filled with physiological saline (Otsuka Pharmaceutical Industries, Tokushima, Japan) was connected to the other end of the three-way cock and fixed to an infusion pump (KDS 220; Neuroscience). An FD pickup (TB-611T; Nihon Kohden) equipped with a cup was placed on the downside of the Ballman cage and connected to the strain gauge pressure amplifier, and the micturition volume was recorded on the thermal array recorder as the tension change. After the completion of the preparation, physiological saline kept at room temperature was continuously injected into the bladder at a flow rate of 6 mL/h for about 30 minutes, and the animals periodically expressing micturition contraction were used in the test. After they are allowed to stand for 30 to 60 minutes, residual urine was manually expressed by finger pressure. Five minutes thereafter, the injection of physiological saline into the bladder was started again, and the injection was immediately stopped when micturition was observed. The bladder capacity was calculated from the period of time until expression of micturition (injection rate 6 mL/h×injection period). The residual urine volume was calculated by subtracting the micturition volume at the time of bladder contraction (voided volume per micturition) from the bladder capacity. By repeating 30 minutes of bladder injection of physiological saline 2 to 3 times, respective values were measured and used as the test compound or solvent pre-administration values. […]

[2] = system: dd male mice; conditions: mouse, in vivo, po, 7 day
Method: The test compound was administered orally or intraperitoneally to 3 animals per group of dd male mice (body weight, 20±1 g). Minimum lethal dose (MLD) value was obtained by observing mortality on the 7th day after the administration.

[3] = before administration (baseline of the Compound 1 group)
[4] = rats with partial urethra obstruction

C[C@](O)(C(=O)Nc1cccc2c1C(=O)c1sccc1CS2(=O)=O)C(F)(F)F [Compound 1, (S)-(+)-N-(5,5-dioxido-10-oxo-4,10-dihydrothieno[3,2-c][1]benzothiepin-9-yl)-3,3,3-trifluoro-2-hydroxy-2-methylpropanamide]
Bladder capacity ([1]; 1 h after administration): 0.54 ± 0.08 mL | Residual urine volume ([1]; 1 h after administration): 0.18 ± 0.07 mL | micturition volume ([1]; 1 h after administration): 0.36 ± 0.07 mL | Bladder capacity ([1]; 2 h after administration): 0.46 ± 0.07 mL | Residual urine volume ([1]; 2 h after administration): 0.10 ± 0.05 mL | micturition volume ([1]; 2 h after administration): 0.36 ± 0.07 mL | Bladder capacity ([1]; 3 h after administration): 0.44 ± 0.07 mL | Residual urine volume ([1]; 3 h after administration): 0.18 ± 0.07 mL | micturition volume ([1]; 3 h after administration): 0.27 ± 0.01 mL | Bladder capacity [1, 3]: 0.40 ± 0.04 mL | Residual urine volume [1, 3]: 0.15 ± 0.02 mL | micturition volume [1, 3]: 0.25 ± 0.04 mL | Effect on bladder capacity (in words) [1, 4]: tended to increase bladder capacity | Effect on micturition volume (in words) [1, 4]: significantly increased micturition volume | Minimum lethal dose (MLD) [2]: > 1,000 mg/kg
